Reference: patent US20130178523A1, “ANTI-CANCER COMPOSITIONS AND METHODS” (THE PENN STATE RESEARCH FOUNDATION, priority 2007, published 2013)

How the values were obtained:
[1] = system: UACC 903 cells; assay: BrdU ELISA cellular proliferation; assay type: cell-based, human; conditions: 24 hours
Procedure: Proliferation rate is measured using a BrdU ELISA kit (Roche Applied Sciences, Indianapolis, Ind.).
BrdUrd is used to label cells for 4-6 hours. At 15 μM concentration, ISC-4 and ISC-6 reduced UACC 903 cellular proliferative potential by ˜80-90% compared to controls. Results represent the average of 3 independent experiments; bars represent SEM. The average value is represented as the percentage of control DMSO treated cells.

[2] = system: UACC 903 cells; assay: Apo-ONE caspase-3/7 apoptosis assay; assay type: cell-based, human; conditions: 24 hours
Procedure: Apoptosis rates are measured using an Apo-ONE Homogenous caspase-3/7 Assay kit (Promega Corporation, Madison, Wis.).
The isoselenocyanate compounds promote apoptosis in melanoma cells. […] The graphs in FIGS. 3A and 3B show fold increase in caspase-3/7 activity relative to DMSO vehicle treated cells on the x-axis. Results represent average of 3 independent experiments. Bars indicate SEM.

[3] = Toxicity assessments in nude mice (blood parameters, histology); assay type: in vivo
Text: Animals are sacrificed by CO2 asphyxiation and blood collected from each animal in plasma separator tubes with lithium heparin (BD Microtainer, BD, Franklin Lakes, N.J.) following cardiac puncture and analyzed for AST (aspartate aminotransferase), ALT, (alanyl aminotransferase), alkaline phosphatase, glucose and creatinine to ascertain liver, heart, kidney and pancreas related toxicity. For morphological examination of blood cells, whole blood is collected in microtainer tubes containing K2EDTA (BD Microtainer, BD, Franklin Lakes, N.J.) and RBC, WBC, lymphocytes, monocytes, eosinophils, platelets, total hemoglobin and hematocrit percentage analyzed. Blood is also microscopically examined for segregates, polychromatin bodies, and smudge cells. A portion of liver, heart, kidney, spleen, intestine pancreas and adrenal from each animal is formalin fixed and paraffin-embedded to examine toxicity-related changes in cell or organ morphology by H&E staining.

[4] = system: UACC 903 cells; assay: Topical application on melanoma tumor growth in vivo; parameters: species or system mice; conditions: topical daily
Procedure: Chemopreventive or chemotherapeutic effect of ISC-4 on cutaneous tumor development is measured by subcutaneous injection of 1 million UACC 903 cells in 0.2 ml of DMEM −10% FBS above both the left and right rib cages of 4- to 6-week old female athymic nude mice using 24 g needles. […] The dimensions of the developing tumors are measured alternate days using calipers and the sizes estimated in cubic millimeters. A minimum of 5 mice per group is used for the topical treatment.
Chemopreventive or chemotherapeutic effect of ISC-4 on cutaneous tumor development is measured by subcutaneous injection of 1 million UACC 903 cells in 0.2 ml of DMEM −10% FBS above both the left and right rib cages of 4- to 6-week old female athymic nude mice using 24 g needles. 24 hours later, animals were treated daily with ISC-4 (12.5-50 μM), PBITC (12.5-50 μM), or vehicle control (acetone) for 3-4 weeks. The dimensions of the developing tumors are measured alternate days using calipers and the sizes estimated in cubic millimeters. A minimum of 5 mice per group was used for the topical treatment.

[5] = system: T-98-G; assay: MTS assay, glioblastoma cells; conditions: Homo sapiens, T98G, 24 h
[6] = system: HT-1080; assay: MTS assay, fibrosarcoma cells; conditions: Homo sapiens, HT-1080, 24 h
[7] = system: Caco-2; assay: MTS assay, colon cancer cells; conditions: Homo sapiens, Caco-2, 24 h
[8] = system: MDA-MB-231; assay: MTS assay, breast cancer cells; conditions: Homo sapiens, MDA-MB-231, 24 h
[9] = system: WM115 melanoma cells; assay: MTS cell viability assay, WM115; conditions: Homo sapiens, WM-115, 24 h
[10] = system: PC-3; assay: MTS assay, prostate cancer cells; conditions: Homo sapiens, PC-3, 24 h
[11] = system: 1205 Lu melanoma cells; assay: MTS cell viability assay, 1205 Lu; conditions: Homo sapiens, 24 h
[12] = system: normal human fibroblasts (FF2441); assay: IC50 in normal human fibroblasts
[13] = system: UACC 903 melanoma cells; assay: MTS cell viability assay, UACC 903; conditions: Homo sapiens, UACC-903, 24 h
[14] = system: pAkt and downstream pPRAS40 in UACC 903 tumors; assay: Western blot analysis of excised tumors; conditions: day 13, 0.76 μmoles i.p. alternate days, versus DMSO or PBITC
[15] = system: Akt signaling pathway in melanoma cell line WM115; assay: Western blot, Akt signaling pathway in WM115; conditions: FIG. 10B
[16] = system: Akt signaling pathway in melanoma cell line 1205 Lu; assay: Western blot, Akt signaling pathway in 1205 Lu; conditions: FIG. 10A
[17] = system: UACC 903 cells; assay: Cell cycle analysis (propidium iodide, FACScan); conditions: 24 hours
[18] = system: UACC 903 tumors; assay: Proliferation/apoptosis rates in tumors (TUNEL, Ki-67)
[19] = system: GFP tagged UACC 903 human melanoma cells; assay: Topical application on reconstructed human skin with melanoma cells; conditions: 12.5 and 25 μM topical; compared to DMSO treated or untreated skins
[20] = system: UACC 903 melanoma cells; assay: Tumor development in nude mice, subcutaneous UACC 903, i.p. treatment; conditions: 0.76 μmoles (3 ppm selenium) i.p. thrice per week; day 24; doses 3× lower than isothiocyanates
[21] = system: Akt signaling pathway; assay: Western blot of Akt signaling pathway in cultured melanoma cells (FIG. 9); conditions: 24 hours

[Se]=C=NCCCCc1ccccc1 [ISC-4, Phenylbutyl Isoselenocyanate]
proliferative potential with increasing concentrations ([1]; 5, 10, 15 μM): decreased proliferative potential
fold more effective than PBITC or PHITC at inhibiting cellular proliferation ([1]; 5-15 μM): ~2 fold
cellular apoptosis with increasing concentrations (caspase-3/7 activity, words) ([2]; 5, 10, 15 μM): increase cellular apoptosis
fold more effective than PBITC at inducing apoptosis ([2]; caspase-3/7 activity, 5-15 μM): ~2 fold
blood SGOT, SGPT, alkaline phosphatase, glucose and creatinine ([3]; 0.76 μmoles i.p. 3 times per week for 3 weeks, compared to vehicle DMSO): did not alter parameters
histological examination of vital organ sections ([3]; hematoxylin and eosin stained, including the liver): did not significantly change cell morphology or organ structure
basal urea nitrogen (BUN), creatinine and glucose levels ([3]; treated versus control animals): not significantly different
systemic toxicity by body weight ([4]; 0.063-0.19 μmoles equivalent to 0.25-0.75 ppm): no systemic toxicity
tumor size ([4]; 0.063-0.19 μmoles equivalent to 0.25-0.75 ppm, versus vehicle or PBITC): decreased tumor size
systemic toxicity by body weight ([4]; 12.5-50 μM): no systemic toxicity
reduction of melanoma tumor development ([4]; 12.5-50 μM, compared to PBITC or vehicle control): ~50%
IC50 [5]: 27 ± 1 µM
IC50 [6]: 11 ± 1 µM
IC50 [7]: 12 ± 3 µM
IC50 [8]: 21 µM
IC50 [9]: 7 µM
IC50 [10]: 19 ± 1 µM
IC50 [11]: 11 µM
fold greater sensitivity of melanoma cells (UACC 903) than normal fibroblasts (FF2441) ([12]; 24 hours): 3 fold
IC50 ([12]; Homo sapiens, FF2441, 24 h, read-out: IC50 (drug concentration required to kill fibroblasts)): 37.5 µM
IC50 [13]: 12 ± 3 µM
expression of downstream PRAS40 (phosphorylated) in tumor lysates ([14]; p<0.001): significantly decreased expression
expression of phosphorylated (active) Akt in tumor lysates ([14]; p<0.05): significantly decreased expression
apoptosis indicated by cleaved PARP protein levels [15]: causes significant apoptosis
apoptosis indicated by cleaved PARP protein levels [16]: causes significant apoptosis
G0/G1 cell population ([17]; 5 μM): 59.4
G2/M cell population ([17]; 5 μM): 16.3
S cell population ([17]; 5 μM): 24.3
subG0/G1 cell population ([17]; 5 μM): 2.9
G0/G1 cell population ([17]; 10 μM): 41.6
G2/M cell population ([17]; 10 μM): 29.4
S cell population ([17]; 10 μM): 29.0
subG0/G1 cell population ([17]; 10 μM): 12.3
G0/G1 cell population ([17]; 15 μM): 35.5
G2/M cell population ([17]; 15 μM): 28.0
S cell population ([17]; 15 μM): 36.5
subG0/G1 cell population ([17]; 15 μM): 22.8
proliferating tumor cells (Ki-67, words) ([18]; compared to PBITC, size and time matched tumors): slightly fewer proliferating tumor cells
TUNEL positive (apoptotic) cells in tumors, fold versus DMSO or PBITC ([18]; tumors harvested at day 11 and 13, 3 ppm selenium i.p.): ~3 fold
decrease in tumor area occupied by melanoma cells [19]: ~80%
melanoma tumor volume [20]: reduce tumor volume
concentration completely inhibiting the Akt3 pathway (Western blot) [21]: 10 µM
level of apoptosis (cleaved PARP) versus PBITC [21]: higher level of apoptosis
